Assay results: the NIST ThermoML archive (doi:10.1016/j.jct.2018.02.013)

Experiments:
[1] = 101.33 kPa, Liquid; for thermal conductivity: transient hot wire; for mass density: Vibrating tube method; for viscosity: Cone and plate viscometry; for electrical conductivity: Direct current cell with electrodes
[2] = molar heat capacity at constant pressure; conditions: 101.33 kPa, Liquid, Small sample (50 mg) DSC

CCCCCCCCn1cc[n+](C)c1.O=S(=O)([N-]S(=O)(=O)C(F)(F)F)C(F)(F)F
[1]
Conditions	thermal conductivity [W/m/K]
280.03 K	0.1289
288.73 K	0.1279
297.76 K	0.1279
307.59 K	0.1279
318.58 K	0.1265
328.58 K	0.1259
337.48 K	0.1259
347.72 K	0.1259
357.76 K	0.1245

CC(=O)[O-].CCCCCCCCCCCCCC[P+](CCCCCC)(CCCCCC)CCCCCC [trihexyl(tetradecyl)phosphonium acetate]
Conditions	electrical conductivity [S/m]	mass density [kg/m3]	molar heat capacity at constant pressure [J/K/mol]	thermal conductivity [W/m/K]	viscosity [mPa·s]
[1], 278.37 K	–	–	–	0.1629	–
[1], 288.1 K	–	–	–	0.1612	–
[1], 293.15 K	–	897.6	–	–	–
[1], 293.2 K	–	–	–	–	254
[1], 298.15 K	–	894.6	–	–	–
[1], 298.16 K	–	–	–	0.1602	–
[1], 298.2 K	–	–	–	–	196.2
[1], 299.6 K	0.00554	–	–	–	–
[1], 303.15 K	–	891.5	–	–	–
[1], 303.2 K	–	–	–	–	151.2
[1], 303.9 K	0.00767	–	–	–	–
[1], 307.92 K	–	–	–	0.1598	–
[1], 308.2 K	–	–	–	–	117.4
[1], 308.7 K	0.0101	–	–	–	–
[1], 313.15 K	–	885.2	–	–	–
[1], 313.2 K	–	–	–	–	92.23
[1], 313.7 K	0.0129	–	–	–	–
[1], 317.98 K	–	–	–	0.1582	–
[1], 318.2 K	–	–	–	–	73.75
[1], 318.8 K	0.0167	–	–	–	–
[1], 323.15 K	–	879	–	–	–
[1], 323.2 K	–	–	–	–	59.32
[1], 323.8 K	0.0209	–	–	–	–
[1], 328.08 K	–	–	–	0.1565	–
[1], 328.2 K	–	–	–	–	48.52
[1], 328.8 K	0.026	–	–	–	–
[1], 333.15 K	–	872.9	–	–	–
[1], 333.2 K	–	–	–	–	40.22
[1], 333.9 K	0.0317	–	–	–	–
[1], 338 K	–	–	–	0.1558	–
[1], 338.2 K	–	–	–	–	33.78
[1], 338.9 K	0.0383	–	–	–	–
[1], 343.15 K	–	866.7	–	–	–
[1], 343.2 K	–	–	–	–	28.55
[1], 343.9 K	0.0458	–	–	–	–
[1], 348.06 K	–	–	–	0.1551	–
[1], 348.2 K	–	–	–	–	24.46
[1], 349 K	0.0542	–	–	–	–
[1], 353.15 K	–	860.7	–	–	–
[1], 353.2 K	–	–	–	–	20.95
[1], 357.1 K	–	–	–	0.1541	–
[1], 358.2 K	–	–	–	–	18.13
[1], 363.15 K	–	854.7	–	–	–
[1], 363.2 K	–	–	–	–	15.71
[1], 368.2 K	–	–	–	–	13.72
[2], 293.15 K	–	–	1095.6	–	–
[2], 298.15 K	–	–	1097.7	–	–
[2], 303.15 K	–	–	1101.5	–	–
[2], 308.15 K	–	–	1105.9	–	–
[2], 313.15 K	–	–	1111.3	–	–
[2], 318.15 K	–	–	1116.7	–	–
[2], 323.15 K	–	–	1122.7	–	–
[2], 328.15 K	–	–	1128.1	–	–
[2], 333.15 K	–	–	1134.1	–	–
[2], 338.15 K	–	–	1140.6	–	–
[2], 343.15 K	–	–	1147.1	–	–
[2], 348.15 K	–	–	1154.2	–	–
[2], 353.15 K	–	–	1158.5	–	–
[2], 358.15 K	–	–	1166.7	–	–
[2], 363.15 K	–	–	1173.2	–	–

CCCC(=O)[O-].CCCCCCCCCCCCCC[P+](CCCCCC)(CCCCCC)CCCCCC [trihexyl(tetradecyl)phosphonium butyrate]
Conditions	electrical conductivity [S/m]	mass density [kg/m3]	molar heat capacity at constant pressure [J/K/mol]	thermal conductivity [W/m/K]	viscosity [mPa·s]
[1], 277.77 K	–	–	–	0.16	–
[1], 288.17 K	–	–	–	0.159	–
[1], 293.15 K	–	893	–	–	–
[1], 293.2 K	–	–	–	–	334.3
[1], 295.2 K	0.00389	–	–	–	–
[1], 298.15 K	–	890.4	–	–	–
[1], 298.2 K	–	–	–	–	251.1
[1], 298.48 K	–	–	–	0.1566	–
[1], 303.15 K	–	887.8	–	–	–
[1], 303.2 K	–	–	–	–	190.2
[1], 303.8 K	0.00631	–	–	–	–
[1], 306.44 K	–	–	–	0.1553	–
[1], 308.2 K	–	–	–	–	146.3
[1], 308.5 K	0.0083	–	–	–	–
[1], 313.15 K	–	881.2	–	–	–
[1], 313.2 K	–	–	–	–	115
[1], 313.9 K	0.0106	–	–	–	–
[1], 318.11 K	–	–	–	0.1543	–
[1], 318.2 K	–	–	–	–	91.46
[1], 318.5 K	0.0137	–	–	–	–
[1], 323.15 K	–	875.1	–	–	–
[1], 323.2 K	–	–	–	–	74.08
[1], 323.6 K	0.0172	–	–	–	–
[1], 327.69 K	–	–	–	0.1526	–
[1], 328.2 K	–	–	–	–	60.22
[1], 328.8 K	0.0214	–	–	–	–
[1], 333.15 K	–	869	–	–	–
[1], 333.2 K	–	–	–	–	49.78
[1], 333.8 K	0.0261	–	–	–	–
[1], 336.59 K	–	–	–	0.1509	–
[1], 338.2 K	–	–	–	–	41.11
[1], 338.7 K	0.0315	–	–	–	–
[1], 343.15 K	–	862.7	–	–	–
[1], 343.2 K	–	–	–	–	34.26
[1], 343.9 K	0.0377	–	–	–	–
[1], 348.16 K	–	–	–	0.1503	–
[1], 348.2 K	–	–	–	–	28.85
[1], 349.1 K	0.0446	–	–	–	–
[1], 353.15 K	–	856.7	–	–	–
[1], 353.2 K	–	–	–	–	24.66
[1], 355.83 K	–	–	–	0.1492	–
[1], 358.2 K	–	–	–	–	21.36
[1], 363.15 K	–	850.3	–	–	–
[1], 363.2 K	–	–	–	–	18.76
[1], 368.2 K	–	–	–	–	16.49
[2], 293.15 K	–	–	1107.1	–	–
[2], 298.15 K	–	–	1112.8	–	–
[2], 303.15 K	–	–	1118.5	–	–
[2], 308.15 K	–	–	1123.6	–	–
[2], 313.15 K	–	–	1129.9	–	–
[2], 318.15 K	–	–	1136.2	–	–
[2], 323.15 K	–	–	1142.5	–	–
[2], 328.15 K	–	–	1148.2	–	–
[2], 333.15 K	–	–	1154.5	–	–
[2], 338.15 K	–	–	1161.3	–	–
[2], 343.15 K	–	–	1168.2	–	–
[2], 348.15 K	–	–	1175	–	–
[2], 353.15 K	–	–	1181.9	–	–
[2], 358.15 K	–	–	1188.7	–	–
[2], 363.15 K	–	–	1196.1	–	–
